pIC50, pKi: −log10 of the molar value.
How the values were obtained:
Type in all cases: cell-based
[1] = biological target: T1, vanilloid receptor 1 (VR1/TRPV1) (Rattus norvegicus, UniProt O35433); assay: Functional FLIPR Ca2+ influx assay on vanilloid receptor 1, capsaicin stimulus (Pharmacological Method I); conditions: for pKi: capsaicin stimulus
T1 construct: The vertebral column is removed from decapitated rats; from tissue; host or cells: primary cells from rat dorsal root ganglia (DRG)
From the text: The agonistic or antagonistic action of the substances to be investigated on the vanilloid receptor 1 (VR1/TRPV1) of the species rat can be determined using the following assay. According to this assay, the Ca^2+ influx through the receptor channel is quantified with the aid of a Ca^2+-sensitive dye (Type Fluo-4, Molecular Probes Europe BV, Leiden Netherlands) in a fluorescent imaging plate reader (FLIPR, Molecular Devices, Sunnyvale, USA).
The vertebral column is removed from decapitated rats and this is laid directly in a cold, i.e. ice bath-surrounded, HBSS buffer (Hank's buffered saline solution, Gibco Invitrogen GmbH, Karlsruhe, Germany) and 1% by volume of an AA solution (antibiotics/antimycotics solution, PAA, Pasching, Austria) is added. The vertebral column is cut in two longitudinally and the vertebral canal is removed together with fascias. Subsequently, the dorsal root ganglia (DRGs) are removed and in turn stored in cold HBSS buffer to which 1% by volume of an AA solution has been added. The DRGs completely freed from blood residues and spinal nerves are in each case transferred to 500 μL of cold collagenase Type 2 (PAA, Pasching, Austria) and incubated at 37° C. for 35 minutes. […] On completion of incubation, the enzyme solution is carefully pipetted off and 500 μL of complete medium are added to the DRGs in each case. The DRGs are in each case repeatedly suspended, drawn through No. 1, No. 12 and No. 16 needles by means of a syringe and transferred to 50 mL Falcon tubes and these are filled to 15 mL with complete medium. The contents of each Falcon tube are in each case filtered through a 70 μm Falcon filter insert and centrifuged at 1200 rpm and room temperature for 10 minutes. The resulting pellet is in each case taken up in 250 μL of complete medium and the cell count is determined.
The number of cells in the suspension is adjusted to 3×10^5 per mL and in each case 150 μL of this suspension are added to a well of the cell culture plates coated as described above.
The cells are then loaded with 2 μM Fluo-4 and 0.01% by volume of Pluronic F127 (Molecular Probes Europe BV, Leiden Netherlands) in HBSS buffer (Hank's buffered saline solution, Gibco Invitrogen GmbH, Karlsruhe, Germany) at 37° C. for 30 min, washed 3 times with HBSS buffer and, after a further incubation of 15 minutes at room temperature, employed in the FLIPR assay for Ca^2+ measurement. […] Quantification is carried out by measuring the highest fluorescence intensity (FC, fluorescence counts) over time.
Initially, the compounds to be tested (10 μM) are pipetted onto the cells and the Ca^2+ influx is compared with the control (capsaicin 10 μM). Information is gained therefrom in % activation relative to the Ca^2+ signal after addition of 10 μM of capsaicin (CP). After incubation for 5 minutes, 100 nM of capsaicin are applied and the influx of Ca^2+ is likewise determined.
Desensitizing agonists and antagonists lead to suppression of the Ca^2+ influx. The percentage inhibition is calculated in comparison with the maximum inhibition achieved with 10 μM of capsaicin.
Triplicate determinations (n=3) are carried out and these are repeated in at least 3 independent experiments (N=4).

[2] = biological target: T2, vanilloid receptor (VR1) (Homo sapiens, UniProt Q8NER1); assay: Functional FLIPR Ca2+ influx assay in CHO-K1 cells transfected with the VR1 gene, capsaicin stimulus (Pharmacological Method II)
T2 construct: expressed in transfected cells; host or cells: CHO-K1 cells (ECACC), stably transfected
T2 sequence (Q8NER1 whole entry): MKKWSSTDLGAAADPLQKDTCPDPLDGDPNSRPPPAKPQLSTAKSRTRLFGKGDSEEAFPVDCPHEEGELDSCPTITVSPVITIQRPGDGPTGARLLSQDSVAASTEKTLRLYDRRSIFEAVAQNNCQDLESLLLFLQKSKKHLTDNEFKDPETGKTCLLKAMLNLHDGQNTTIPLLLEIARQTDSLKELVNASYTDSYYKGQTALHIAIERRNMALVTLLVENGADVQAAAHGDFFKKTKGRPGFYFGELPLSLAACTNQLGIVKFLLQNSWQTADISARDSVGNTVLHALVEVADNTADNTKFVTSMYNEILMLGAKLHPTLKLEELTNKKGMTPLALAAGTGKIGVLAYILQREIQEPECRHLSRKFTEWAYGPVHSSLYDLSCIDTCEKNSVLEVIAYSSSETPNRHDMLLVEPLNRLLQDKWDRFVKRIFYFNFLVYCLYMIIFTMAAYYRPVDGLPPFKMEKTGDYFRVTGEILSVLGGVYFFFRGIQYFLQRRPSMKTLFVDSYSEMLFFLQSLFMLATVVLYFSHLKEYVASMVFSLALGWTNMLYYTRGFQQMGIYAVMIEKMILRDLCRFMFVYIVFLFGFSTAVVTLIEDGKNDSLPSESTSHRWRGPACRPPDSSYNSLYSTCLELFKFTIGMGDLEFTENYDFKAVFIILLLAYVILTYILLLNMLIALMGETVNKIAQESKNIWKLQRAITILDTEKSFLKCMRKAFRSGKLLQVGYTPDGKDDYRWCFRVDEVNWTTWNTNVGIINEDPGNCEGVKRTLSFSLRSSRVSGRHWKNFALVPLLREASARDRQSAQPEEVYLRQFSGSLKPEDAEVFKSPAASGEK
From the text: The agonistic or antagonistic action of the substances to be examined on the vanilloid receptor (VR1) can alternatively be determined by the following assay. According to this assay the Ca^2+ influx through the canal is quantified with the aid of a Ca^2+-sensitive dye (type Fluo-4, Molecular Probes, Europe BV, Leiden, Netherlands) in a fluorescent imaging plate reader (FLIPR, Molecular Devices, Sunnyvale, USA).
Chinese hamster ovary cells (CHO-K1 cells, European Collection of Cell Cultures (ECACC) UK) are stably transfected with the VR1 gene. For carrying out functional investigations, these cells are plated on poly-D-lysine-coated, black 96-well plates with a clear bottom (BD Biosciences, Heidelberg, Germany) in a density of 25,000 cells/well. The cells are incubated overnight at 37° C. and 5% CO2 in a culture medium (Nutrient Mixture ‘am’s F12, 10% by volume of FCS (fetal calf serum), 18 μg/ml of L-proline). On the following day the cells are incubated with Fluo-4 (Fluo-4 2 μM, Pluronic F127 0.01 by volume, Molecular Probes in HBSS (Hank's buffered saline solution), Gibco Invitrogen GmbH, Karlsruhe, Germany) for 30 minutes at 37° C. The plates are then washed 3 times with HBSS buffer and, after another incubation over a period of 15 minutes at room temperature, are used in the FLIPR for Ca^2+ measurement. The Ca^2+-dependent fluorescence is measured prior to and following the addition of the substances being examined (wavelength λex=488 nm, λem=540 nm). Quantification is carried out by measuring the highest fluorescence intensity (PC, fluorescence counts) over time.
The FLIPR protocol consists of 2 substance additions. First of all, the substances to be tested (10 μM) are pipetted onto the cells and the Ca^2+ influx is compared with the control (capsaicin 10 μM) (percentage activation based on the Ca^2+ signal following addition of 10 μM of capsaicin). Following incubation over a period of 5 minutes 100 nM of capsaicin are applied and the influx of Ca^2+ is likewise determined.
Desensitizing agonists and antagonists led to a suppression of the Ca^2+ influx. The percentage inhibition compared with the maximum attainable inhibition using 10 μM of capsaicin is calculated.
Based on the percentage displacement effected by different concentrations of the compounds of the general formula I to be tested, IC50 inhibition concentrations are calculated which cause 50 percent displacement of capsaicin. Conversion using the Cheng Prusoff equation gave Ki values for the test substances (Cheng, Prusoff; Bioch. Pharmacol. 22, 3099-3108, 1973).

[3] = biological target: vanilloid receptor 1 (VR1/TRPV1-Receptor) (Homo sapiens, UniProt Q8NER1); assay: VR1 functional assay following pH-stimulus
vanilloid receptor 1 (VR1/TRPV1-Receptor), sequence (Q8NER1 whole entry): as above

[4] = biological target: T2, vanilloid receptor (VR1); assay: Functional FLIPR Ca2+ influx assay in CHO-K1 cells transfected with the VR1 gene, capsaicin stimulus (Pharmacological Method II); conditions: read-out: inhibition (in percent), Human Capsaicin
[5] = capsaicin, read-out: inhibition (in percent), Rat Capsaicin
[6] = read-out: inhibition (in percent), Human following pH-stimulus

T1 sequence (O35433 whole entry): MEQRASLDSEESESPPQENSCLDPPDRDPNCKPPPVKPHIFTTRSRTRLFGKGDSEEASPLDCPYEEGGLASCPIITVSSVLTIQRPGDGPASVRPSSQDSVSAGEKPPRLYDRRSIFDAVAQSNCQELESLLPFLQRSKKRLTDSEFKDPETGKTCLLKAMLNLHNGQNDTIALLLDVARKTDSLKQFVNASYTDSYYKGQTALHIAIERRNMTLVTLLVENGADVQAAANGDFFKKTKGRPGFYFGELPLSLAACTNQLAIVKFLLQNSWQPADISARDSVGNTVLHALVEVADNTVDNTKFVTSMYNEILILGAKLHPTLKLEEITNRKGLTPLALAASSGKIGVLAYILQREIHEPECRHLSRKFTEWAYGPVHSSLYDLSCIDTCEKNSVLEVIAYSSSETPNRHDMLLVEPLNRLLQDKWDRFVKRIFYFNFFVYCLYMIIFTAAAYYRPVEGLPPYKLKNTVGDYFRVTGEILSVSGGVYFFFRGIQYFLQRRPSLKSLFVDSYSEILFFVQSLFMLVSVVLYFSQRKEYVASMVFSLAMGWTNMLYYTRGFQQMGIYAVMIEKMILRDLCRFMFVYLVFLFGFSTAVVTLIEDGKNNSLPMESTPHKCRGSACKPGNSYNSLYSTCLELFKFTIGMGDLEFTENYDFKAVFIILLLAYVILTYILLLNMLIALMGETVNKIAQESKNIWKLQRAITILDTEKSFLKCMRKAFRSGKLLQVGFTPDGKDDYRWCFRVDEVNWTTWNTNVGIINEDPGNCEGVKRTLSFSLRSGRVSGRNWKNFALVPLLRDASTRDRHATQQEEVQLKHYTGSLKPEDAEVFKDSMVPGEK

SMILES: CS(=O)(=O)Nc1ccc(C2(C(=O)NCc3ccc(C(F)(F)F)nc3SC3CCCCC3)CCCCC2)cc1F [Example 16, N-((2-(Cyclohexylthio)-6-(trifluoromethyl)pyridin-3-yl)methyl)-1-(3-fluoro-4-(methylsulfonamido)phenyl)cyclohexanecarboxamide]
- inhibition at 1 µM [1, 5]: 15%
- inhibition at 5 µM [1, 5]: 69%

SMILES: CCC(C)(C(=O)NCc1ccc(C(F)(F)F)nc1N1CCC(C)CC1)c1ccc(NS(C)(=O)=O)c(F)c1 (centres unmarked) [Example 7, 2-(3-Fluoro-4-(methylsulfonamido)phenyl)-2-methyl-N-((2-(4-methylpiperidin-1-yl)-6-(trifluoromethyl)pyridin-3-yl)methyl)butanamide]
- pKi [2]: 6.91
- pKi [1]: 7.42
- inhibition at 1 µM [3, 6]: 0%
- inhibition at 5 µM [3, 6]: 15%
- inhibition at 10 µM [3, 6]: 18%

SMILES: CC1CCN(c2nc(C(F)(F)F)ccc2CNC(=O)C(c2ccccc2)c2ccc(NS(C)(=O)=O)c(F)c2)CC1 (centres unmarked) [Example 3, 2-(3-Fluoro-4-(methylsulfonamido)phenyl)-N-((2-(4-methylpiperidin-1-yl)-6-(trifluoromethyl)pyridin-3-yl)methyl)-2-phenylacetamide]
- pKi [2]: 8.89
- pIC50 [3]: 7.10

SMILES: CC1CCN(c2nc(C(F)(F)F)ccc2CNC(=O)C(c2ccc(NS(C)(=O)=O)c(F)c2)C2CCCCC2)CC1 (centres unmarked) [Example 1, 2-Cyclohexyl-2-(3-fluoro-4-(methylsulfonamido)phenyl)-N-((2-(4-methylpiperidin-1-yl)-6-(trifluoromethyl)pyridin-3-yl)methyl)acetamide]
- pKi [2]: 7.51
- pIC50 [3]: 6.93

SMILES: CC(C)(C(=O)NCc1ccc(C(F)(F)F)nc1SC1CCCCC1)c1ccc(NS(C)(=O)=O)c(F)c1 [Example 6, N-((2-(Cyclohexylthio)-6-(trifluoromethyl)pyridin-3-yl)methyl)-2-(3-fluoro-4-(methylsulfonamido)phenyl)-2-methylpropanamide]
- pKi [2]: 7.18
- pKi [1]: 7.46
- inhibition at 0.1 µM ([3]; @ 0.1 μM, read-out: inhibition (in percent), Human following pH-stimulus): 4%
- inhibition at 1 µM [3, 6]: 20%
- inhibition at 5 µM [3, 6]: 42%
- inhibition at 10 µM [3, 6]: 54%

SMILES: CC1CCN(c2nc(C(F)(F)F)ccc2CNC(=O)C(C)(C)c2ccc(NS(C)(=O)=O)c(F)c2)CC1 [Example 5, 2-(3-Fluoro-4-(methylsulfonamido)phenyl)-2-methyl-N-((2-(4-methylpiperidin-1-yl)-6-(trifluoromethyl)pyridin-3-yl)methyl)propanamide]
- pKi [2]: 7.31
- pKi [1]: 7.34
- pIC50 [3]: 6.05

SMILES: Cc1ccccc1C(C(=O)NCc1ccc(C(F)(F)F)nc1N1CCC(C)CC1)c1ccc(NS(C)(=O)=O)c(F)c1 (centres unmarked) [Example 40, 2-(3-Fluoro-4-(methylsulfonamido)phenyl)-N-((2-(4-methylpiperidin-1-yl)-6-(trifluoromethyl)pyridin-3-yl)methyl)-2-o-tolylacetamide]
- pKi [2]: 7.37
- pKi [1]: 6.96
- pIC50 [3]: 5.50

SMILES: CS(=O)(=O)Nc1ccc(C(C(=O)NCc2ccc(C(F)(F)F)nc2SC2CCCCC2)C2CCCCC2)cc1F (centres unmarked) [Example 2, 2-Cyclohexyl-N-((2-(cyclohexylthio)-6-(trifluoromethyl)pyridin-3-yl)methyl)-2-(3-fluoro-4-(methylsulfonamido)phenyl)acetamide]
- inhibition at 1 µM [4]: 2%
- inhibition at 5 µM [4]: 31%
- pKi [1]: 7.01
- pIC50 [3]: 5.86

SMILES: CC1CCN(c2nc(C(F)(F)F)ccc2CNC(=O)C(c2cccc(F)c2)c2ccc(NS(C)(=O)=O)c(F)c2)CC1 (centres unmarked) [Example 34, 2-(3-Fluoro-4-(methylsulfonamido)phenyl)-2-(3-fluorophenyl)-N-((2-(4-methylpiperidin-1-yl)-6-(trifluoromethyl)pyridin-3-yl)methyl)acetamide]
- pKi [2]: 8.62
- pIC50 [3]: 7.67

SMILES: Cc1cccc(C(C(=O)NCc2ccc(C(F)(F)F)nc2N2CCC(C)CC2)c2ccc(NS(C)(=O)=O)c(F)c2)c1 (centres unmarked) [Example 41, 2-(3-Fluoro-4-(methylsulfonamido)phenyl)-N-((2-(4-methylpiperidin-1-yl)-6-(trifluoromethyl)pyridin-3-yl)methyl)-2-m-tolylacetamide]
- pKi [2]: 10.00
- pKi [1]: 8.74
- pIC50 [3]: 7.06

SMILES: Cc1ccc(C(C(=O)NCc2ccc(C(F)(F)F)nc2N2CCC(C)CC2)c2ccc(NS(C)(=O)=O)c(F)c2)cc1 (centres unmarked) [Example 42, 2-(3-Fluoro-4-(methylsulfonamido)phenyl)-N-((2-(4-methylpiperidin-1-yl)-6-(trifluoromethyl)pyridin-3-yl)methyl)-2-p-tolylacetamide]
- pKi [2]: 8.96
- pKi [1]: 8.20
- pIC50 [3]: 7.50

SMILES: CC1CCN(c2nc(C(F)(F)F)ccc2CNC(=O)C2(c3ccc(NS(C)(=O)=O)c(F)c3)CCCCC2)CC1 [Example 15, 1-(3-Fluoro-4-(methylsulfonamido)phenyl)-N-((2-(4-methylpiperidin-1-yl)-6-(trifluoromethyl)pyridin-3-yl)methyl)cyclohexanecarboxamide]
- inhibition at 1 µM [4]: 0%
- inhibition at 5 µM [4]: 33%
- inhibition at 1 µM [1, 5]: 7%
- inhibition at 5 µM [1, 5]: 69%
- inhibition at 5 µM [3, 6]: 7%
- inhibition at 10 µM [3, 6]: 32%

SMILES: CC1CCN(c2nc(C(F)(F)F)ccc2CNC(=O)C2(c3ccc(NS(C)(=O)=O)c(F)c3)CCCC2)CC1 [Example 13, 1-(3-Fluoro-4-(methylsulfonamido)phenyl)-N-((2-(4-methylpiperidin-1-yl)-6-(trifluoromethyl)pyridin-3-yl)methyl)cyclopentanecarboxamide]
- inhibition at 1 µM [4]: 0%
- inhibition at 5 µM [4]: 25%
- inhibition at 0.1 µM ([1]; @ 0.1 μM, capsaicin, read-out: inhibition (in percent), Rat Capsaicin): 0%
- inhibition at 1 µM [1, 5]: 27%
- inhibition at 5 µM [1, 5]: 43%

SMILES: CS(=O)(=O)Nc1ccc(C(C(=O)NCc2ccc(C(F)(F)F)nc2SC2CCCCC2)C2CCCC2)cc1F (centres unmarked) [Example 22, N-((2-(Cyclohexylthio)-6-(trifluoromethyl)pyridin-3-yl)methyl)-2-cyclopentyl-2-(3-fluoro-4-(methylsulfonamido)phenyl)acetamide]
- pKi [2]: 6.99
- pKi [1]: 7.50
- inhibition at 1 µM [3, 6]: 0%
- inhibition at 5 µM [3, 6]: 27%
- inhibition at 10 µM [3, 6]: 46%

SMILES: Cc1ccc(CC(C(=O)NCc2ccc(C(F)(F)F)nc2N2CCC(C)CC2)c2ccc(NS(C)(=O)=O)c(F)c2)cc1 (centres unmarked) [Example 77, 2-(3-Fluoro-4-(methylsulfonamido)phenyl)-N-((2-(4-methylpiperidin-1-yl)-6-(trifluoromethyl)pyridin-3-yl)methyl)-3-p-tolylpropanamide]
- inhibition at 1 µM [4]: 0%
- inhibition at 5 µM [4]: 17%
- pKi [1]: 6.80

SMILES: CS(=O)(=O)Nc1ccc(C(C(=O)NCc2ccc(C(F)(F)F)nc2SC2CCCCC2)c2ccccc2)cc1F (centres unmarked) [Example 4, N-((2-(Cyclohexylthio)-6-(trifluoromethyl)pyridin-3-yl)methyl)-2-(3-fluoro-4-(methylsulfonamido)phenyl)-2-phenylacetamide]
- pKi [2]: 7.20
- pIC50 [3]: 5.80

SMILES: CC1CCN(c2nc(C(F)(F)F)ccc2CNC(=O)C(c2ccc(F)cc2)c2ccc(NS(C)(=O)=O)c(F)c2)CC1 (centres unmarked) [Example 35, 2-(3-Fluoro-4-(methylsulfonamido)phenyl)-2-(4-fluorophenyl)-N-((2-(4-methylpiperidin-1-yl)-6-(trifluoromethyl)pyridin-3-yl)methyl)acetamide]
- pKi [2]: 8.47
- pKi [1]: 7.87
- pIC50 [3]: 6.61

SMILES: CC1CCN(c2nc(C(F)(F)F)ccc2CNC(=O)C(c2ccc(NS(C)(=O)=O)c(F)c2)C2CCCC2)CC1 (centres unmarked) [Example 21, 2-Cyclopentyl-2-(3-fluoro-4-(methylsulfonamido)phenyl)-N-((2-(4-methylpiperidin-1-yl)-6-(trifluoromethyl)pyridin-3-yl)methyl)acetamide]
- pKi [2]: 7.05
- pKi [1]: 7.69
- pIC50 [3]: 6.02
